Test system: SK-MEL-28 cells (B-RAF V600E mutated)
Test: Inhibition of the proliferation of cultivated human melanoma cells (SK-MEL-28), AlamarBlue
Assay type: cell-based
Conditions: 72 h incubation
Description: Measurement of the Inhibition of the Proliferation of Cultivated Human Melanoma Cells (SK-MEL-28, B-RAF^[…] Mutated)
For measuring the proliferation of cultivated human tumour cells, cells of the melanoma cell line SK-MEL-28 [from American Type Culture Collection (ATCC)] are cultivated in MEM medium, supplemented with 10% foetal calf serum, 2% sodium bicarbonate, 1 mM sodium pyruvate, 1% non-essential amino acids (e.g. from Cambrex, # BE13-114E) and 2 mM glutamine. SK-MEL-28 cells are placed in 96-well flat bottomed dishes in a density of 2500 cells per well in supplemented MEM medium (see above) and incubated overnight in an incubator (at 37° C. and 5% CO2). The active substances are added to the cells in different concentrations, so that a concentration range of 50 μM to 3.2 nM is covered. If necessary the initial concentration of 50 μM is changed to 10 μM or 2 μM and further dilution is carried out accordingly (up to 0.6 nM or 0.12 nM). After an incubation period of a further 72 h 20 μL AlamarBlue reagent (Serotec Ltd., # BUF012B) are added to each well and the cells are incubated for a further 3-6 h. The colour change of the AlamarBlue reagent is determined in a fluorescence spectrophotometer (e.g. Gemini, Molecular Devices). EC50 values are calculated using a software program (GraphPadPrizm).

| EC50 | Compound |
| --- | --- |
| 480 nM | COc1cncc(-c2cn(-c3c(F)ccc(NS(=O)(=O)CC4CC4)c3F)nn2)c1 [Example I-46] |
| 6 nM | CC(C)N1CCN(c2cncc(-c3cn(-c4c(F)ccc(NS(=O)(=O)c5ccoc5)c4Cl)nn3)c2)CC1 [Example I-68] |
| 114 nM | CCCS(=O)(=O)Nc1ccc(F)c(-n2cc(-c3cncc(-n4cnc(C)c4)c3)nn2)c1F [Example I-32] |
| 216 nM | CCCS(=O)(=O)Nc1ccc(F)c(-n2cc(-c3cncc(OC)c3)nn2)c1F [Example I-2] |
| 37 nM | CC(C)CS(=O)(=O)Nc1ccc(F)c(-n2cc(-c3cncc(N4CCN(C5CC5)CC4)c3)nn2)c1F [Example I-29] |
| 9 nM | O=S(=O)(Nc1ccc(F)c(-n2cc(-c3cncc(N4CCN(C5CC5)CC4)c3)nn2)c1F)c1ccoc1 [Example I-60] |
| 82 nM | CCCS(=O)(=O)Nc1ccc(F)c(-n2cc(-c3cncc(N4CCN(CCOCC)CC4)c3)nn2)c1F [Example I-3] |
| 231 nM | CC(C)S(=O)(=O)Nc1ccc(F)c(-n2cc(-c3cncc(N4CCN(CC5CC5)CC4)c3)nn2)c1F [Example I-22] |
| 432 nM | CCCCS(=O)(=O)Nc1ccc(F)c(-n2cc(-c3cncc(OC)c3)nn2)c1F [Example I-43] |
| 589 nM | CCCS(=O)(=O)Nc1ccc(F)c(-n2cc(-c3cncc(OCCOC)c3)nn2)c1F [Example I-36] |
| 459 nM | CC(C)S(=O)(=O)Nc1ccc(F)c(-n2cc(-c3cncc(N4CCN(C)CC4)c3)nn2)c1F [Example I-23] |
| 306 nM | CCCS(=O)(=O)Nc1ccc(F)c(-n2cc(-c3cncc(-n4cnc(C(F)(F)F)c4)c3)nn2)c1F [Example I-57] |
| 305 nM | CCCS(=O)(=O)Nc1ccc(F)c(-n2cc(-c3cncc(N4CCC(N5CCOCC5)CC4)c3)nn2)c1F [Example I-8] |
| 145 nM | CCCS(=O)(=O)Nc1ccc(Cl)c(-n2cc(-c3cncc(OC)c3)nn2)c1F [Example I-39] |
| 117 nM | CC(C)CS(=O)(=O)Nc1ccc(F)c(-n2cc(-c3cncc(N4CCN(C)CC4)c3)nn2)c1F [Example I-24] |
| 87 nM | CCCS(=O)(=O)Nc1ccc(F)c(-n2cc(-c3cncc(N4CCN(CCOC(C)C)CC4)c3)nn2)c1F [Example I-16] |
| 245 nM | CC(C)S(=O)(=O)Nc1ccc(F)c(-n2cc(-c3cncc(N4CCN(C(C)(C)C)CC4)c3)nn2)c1F [Example I-20] |
| 96 nM | CC(C)CS(=O)(=O)Nc1ccc(F)c(-n2cc(-c3cncc(N4CCN(C(C)(C)C)CC4)c3)nn2)c1F [Example I-27] |
| 358 nM | CCCS(=O)(=O)Nc1ccc(F)c(-n2cc(-c3cncc(OCC)c3)nn2)c1F [Example I-35] |
| 24 nM | COc1cncc(-c2cn(-c3c(F)ccc(NS(=O)(=O)c4ccoc4)c3F)nn2)c1 [Example I-45] |
| 363 nM | COc1cncc(-c2cn(-c3c(F)ccc(NS(=O)(=O)c4cc(F)ccc4F)c3F)nn2)c1 [Example I-38] |
| 279 nM | CCCS(=O)(=O)Nc1ccc(F)c(-n2cc(-c3cncc(Br)c3)nn2)c1F [Example I-7] |
| 10 nM | C#CCN1CCN(c2cncc(-c3cn(-c4c(F)ccc(NS(=O)(=O)c5ccoc5)c4Cl)nn3)c2)CC1 [Example I-72] |

| EC50 | Compound |
| --- | --- |
| 327 nM | CCS(=O)(=O)Nc1ccc(Cl)c(-n2cc(-c3cncc(OC)c3)nn2)c1F [Example I-40] |
| 5 nM | CC(C)(C)N1CCN(c2cncc(-c3cn(-c4c(F)ccc(NS(=O)(=O)c5ccoc5)c4Cl)nn3)c2)CC1 [Example I-69] |
| 1720 nM | CCCS(=O)(=O)Nc1ccc(F)c(-n2cc(-c3cnn(C)c3C)nn2)c1F [Example I-14] |
| 493 nM | COc1cncc(-c2cn(-c3c(F)ccc(NS(=O)(=O)C(C)C)c3F)nn2)c1 [Example I-19] |
| 201 nM | CCCS(=O)(=O)Nc1ccc(F)c(-n2cc(-c3cncc(N4CCOCC4)c3)nn2)c1F [Example I-12] |
| 559 nM | CCCS(=O)(=O)Nc1ccc(F)c(-n2cc(-c3ccc(NC(C)=O)nc3)nn2)c1F [Example I-6] |
| 1020 nM | CCCS(=O)(=O)Nc1ccc(F)c(-n2cc(-c3cnc(NC4CCN(CCOC)CC4)nc3)nn2)c1F [Example I-13] |
| 113 nM | CCCS(=O)(=O)Nc1ccc(F)c(-n2cc(-c3cncc(N4CCN(CC)CC4)c3)nn2)c1F [Example I-1] |
| 506 nM | CCCS(=O)(=O)Nc1ccc(F)c(-n2cc(-c3cncnc3)nn2)c1F [Example I-11] |
| 38 nM | CCCS(=O)(=O)Nc1ccc(F)c(-n2cc(-c3cncc(N4CCN(CC5CC5)CC4)c3)nn2)c1Cl [Example I-64] |
| 535 nM | CCCS(=O)(=O)Nc1ccc(F)c(-n2cc(-c3cncc(C)c3)nn2)c1F [Example I-4] |
| 107 nM | CCCS(=O)(=O)Nc1ccc(F)c(-n2cc(-c3cncc(N4CCN(CC5CC5)CC4)c3)nn2)c1F [Example I-10] |
| 273 nM | CCCS(=O)(=O)Nc1ccc(F)c(-n2cc(-c3cncc(OC)c3)nn2)c1Cl [Example I-75] |
| 61 nM | O=S(=O)(Nc1ccc(F)c(-n2cc(-c3cncc(Cl)c3)nn2)c1Cl)c1ccoc1 [Example I-71] |
| 44 nM | CCCS(=O)(=O)Nc1ccc(F)c(-n2cc(-c3cncc(N4CCN(C(C)C)CC4)c3)nn2)c1Cl [Example I-63] |
| 314 nM | CC(C)N1CCN(c2cncc(-c3cn(-c4c(F)ccc(NS(=O)(=O)C(C)C)c4F)nn3)c2)CC1 [Example I-21] |
| 10 nM | CC(C)N1CCN(c2cncc(-c3cn(-c4c(F)ccc(NS(=O)(=O)c5ccoc5)c4F)nn3)c2)CC1 [Example I-61] |
| 132 nM | CCCS(=O)(=O)Nc1ccc(F)c(-n2cc(-c3cncc(N4CCN(C(C)(C)C)CC4)c3)nn2)c1F [Example I-9] |
| 55 nM | CCCS(=O)(=O)Nc1ccc(F)c(-n2cc(-c3cncc(N4CCN(CC)CC4)c3)nn2)c1Cl [Example I-66] |
| 68 nM | C#CCN1CCN(c2cncc(-c3cn(-c4c(F)ccc(NS(=O)(=O)CCC)c4F)nn3)c2)CC1 [Example I-53] |
| 44 nM | C#CCN1CCN(c2cncc(-c3cn(-c4c(F)ccc(NS(=O)(=O)CCC)c4Cl)nn3)c2)CC1 [Example I-73] |
| 75 nM | CCCS(=O)(=O)Nc1ccc(F)c(-n2cc(-c3cncc(N4CCN(C5CC5)CC4)c3)nn2)c1F [Example I-18] |
| 4 nM | O=S(=O)(Nc1ccc(F)c(-n2cc(-c3cncc(N4CCN(C5CC5)CC4)c3)nn2)c1Cl)c1ccoc1 [Example I-67] |

| EC50 | Compound |
| --- | --- |
| 403 nM | COc1cncc(-c2cn(-c3c(Cl)ccc(NS(=O)(=O)C(C)C)c3F)nn2)c1 [Example I-41] |
| 1450 nM | CCCS(=O)(=O)Nc1ccc(F)c(-n2cc(-c3cncc(N(C)CCN4CCOCC4)c3)nn2)c1F [Example I-31] |
| 88 nM | CC(C)CS(=O)(=O)Nc1ccc(F)c(-n2cc(-c3cncc(N4CCN(CC5CC5)CC4)c3)nn2)c1F [Example I-28] |
| 218 nM | CCCS(=O)(=O)Nc1ccc(F)c(-n2cc(-c3cncc(OC(C)C)c3)nn2)c1F [Example I-34] |
| 545 nM | CCCS(=O)(=O)Nc1ccc(F)c(-n2cc(-c3cncc(-n4cc(C)nc4C)c3)nn2)c1F [Example I-48] |
| 153 nM | CCCS(=O)(=O)Nc1ccc(F)c(-n2cc(-c3cncc(N4CCN(CC#N)CC4)c3)nn2)c1F [Example I-52] |
| 493 nM | CCCS(=O)(=O)Nc1ccc(F)c(-n2cc(-c3cncc(N4CCNCC4)c3)nn2)c1F [Example I-50] |
| 5 nM | CCN1CCN(c2cncc(-c3cn(-c4c(F)ccc(NS(=O)(=O)c5ccoc5)c4Cl)nn3)c2)CC1 [Example I-74] |
| 1260 nM | CCCS(=O)(=O)Nc1ccc(F)c(-n2cc(-c3cncc(F)c3)nn2)c1F [Example I-17] |
| 675 nM | COCCS(=O)(=O)Nc1ccc(F)c(-n2cc(-c3cncc(N4CCN(C5CC5)CC4)c3)nn2)c1F [Example I-56] |
| 98 nM | CC(C)CS(=O)(=O)Nc1ccc(F)c(-n2cc(-c3cncc(N4CCN(C(C)C)CC4)c3)nn2)c1F [Example I-26] |
| 158 nM | COc1cncc(-c2cn(-c3c(F)ccc(NS(=O)(=O)CC(C)C)c3F)nn2)c1 [Example I-25] |
| 7 nM | O=S(=O)(Nc1ccc(F)c(-n2cc(-c3cncc(N4CCN(CC5CC5)CC4)c3)nn2)c1Cl)c1ccoc1 [Example I-54] |
| 671 nM | CCCS(=O)(=O)Nc1ccc(F)c(-n2cc(-c3cncc(OC4CCOCC4)c3)nn2)c1F [Example I-33] |
| 71 nM | CCCS(=O)(=O)Nc1ccc(F)c(-n2cc(-c3cncc(N4CCN(C5CCOC5)CC4)c3)nn2)c1F (centres unmarked) [Example I-58] |
| 32 nM | COc1cncc(-c2cn(-c3c(F)ccc(NS(=O)(=O)c4ccoc4)c3Cl)nn2)c1 [Example I-55] |
| 1820 nM | CCCS(=O)(=O)Nc1ccc(F)c(-n2cc(-c3cccnc3)nn2)c1F [Example I-15] |
| 65 nM | CCCS(=O)(=O)Nc1ccc(F)c(-n2cc(-c3cncc(N4CCN(C(C)(C)C)CC4)c3)nn2)c1Cl [Example I-76] |
| 114 nM | CCCS(=O)(=O)Nc1ccc(F)c(-n2cc(-c3cncc(N4CCN(C5COC5)CC4)c3)nn2)c1F [Example I-51] |
| 73 nM | O=S(=O)(Nc1ccc(F)c(-n2cc(-c3cncc(Br)c3)nn2)c1Cl)c1ccoc1 [Example I-70] |
| 928 nM | CCCS(=O)(=O)Nc1ccc(F)c(-n2cc(-c3cncc(OCCN(C)C(C)C)c3)nn2)c1F [Example I-37] |
| 98 nM | CCCS(=O)(=O)Nc1ccc(F)c(-n2cc(-c3cncc(N4CCN(C5CCC5)CC4)c3)nn2)c1F [Example I-59] |

Source: US8710055B2, “Triazolylphenyl sulfonamides as serine/threonine kinase inhibitors” (Boehringer Ingelheim International GmbH, priority 2010, dated 2014)
